According to patent US12721835B2, “Anticoccidial composition comprising violacein, and use thereof” (CJ CHEILJEDANG CORPORATION, priority 2020, dated 2026):

What was measured:
[1] = tested on: Eimeria tenella; test: Intracellular protozoan propagation inhibition in MDBK cells (ITS-1 PCR); format: cell-based; settings: read-out: Intracellular protozoan propagation inhibitory effect (%)
Description: (§1) In the present example, using MDBK cell line which is a representative animal cell known to cause Eimeria infection and propagation, the inhibition ability of intracellular protozoan invasion and intracellular protozoal propagation of the violacein was investigated.
100,000 MDBK cells (purchased from ATCC) were aliquoted in a 24-well plate, and then incubated at a temperature of 37° C. for 12 hours. The protozoan of Eimeria tenella was obtained similar to the method of Example 3 above. 200,000 protozoa per one well were added to wells in which cells were aliquoted, and cultured at a temperature of 41° C. for 24 hours, and then the cells were washed using PBS solution twice to remove protozoa which were not attached to the cells. Each material (violacein and anticoccidial agents, salinomycin, diclazuril and gallic acid) was treated to the cells by concentration, and further cultured at a temperature of 41° C. for 24 hours. A negative control group is a MDBK cell infected by protozoa, and a positive control group means a group in which salinomycin and diclazuril solution was incubated with the Eimeria tenella protozoan. After removing the cells and protozoa inside the cells through pipetting, DNA was extracted from the cells, and PCR was performed using E. tenella ITS-1 (Internal transcribed spacer-1) gene-specific primers. The sequences of the used primers were described in Table 9 above.
The intracellular protozoan propagation inhibition rate (%) through treatment of the material was calculated by comparing Ct values in the material treatment groups compared to the negative control group, and the result was shown in FIG. 3 and Table 10.

[2] = tested on: Eimeria tenella; test: Cell invasion inhibition of protozoa in MDBK cells (ITS-1 PCR); format: cell-based; settings: read-out: Cell invasion inhibitory effect of protozoa (%)
Description: as §1
100,000 MDBK cells (purchased from ATCC) were aliquoted in a 24-well plate, and then incubated at a temperature of 37° C. for 12 hours. The protozoan of Eimeria tenella was obtained similar to the method of Example 3 above. 200,000 protozoa per one well were added to wells in which cells were aliquoted, and each material (violacein and anticoccidial agents, salinomycin, diclazuril and gallic acid) was treated to the cells by concentration, and cultured at a temperature of 41° C. for 24 hours. A negative control group is a MDBK cell infected by protozoa of Eimeria tenella, and a positive control group means a group in which salinomycin, diclazuril or gallic acid solution was incubated with the Eimeria tenella protozoan. […] After removing the cells and protozoa inside the cells through pipetting, DNA was extracted from the cells, and PCR was performed using E. tenella ITS-1 (Internal transcribed spacer-1) gene-specific primers. The sequences of the used primers were described in Table 9 below.
Ct values before/after washing for each material were compared and corrected with the ΔCt value of the negative control group to calculate the cell invasion inhibition rate (%) of the protozoa through treatment of each material, and the result was shown in FIG. 3 and Table 10 below.

[3] = tested on: Eimeria tenella; test: In vivo anticoccidial activity upon single inoculation (broilers, formulated feed); parameters: key to ACI: ACI out of 200 = survival% + RWG% − lesion×10 − oocyst index; settings: Eimeria tenella infection; for Lesion score: appendix, scale 0-4, 8th day; for Oocyst excretion amount/g: feces day 6-8; for Lesion index: lesion score x 10; for ACI: out of 200 points; for Survival rate after challenge inoculation (%): up to 8th day; for RWG(%): vs non-infected negative control
Description: An in vivo anticoccidial efficacy evaluation test was performed in an animal experiment facility in Gyeongsangnam-do, South Korea. One-day-old female Ross broilers were individually weighed and randomly divided into groups to use in an experiment. Matters and conditions for experimental design were described in Table 2.
A breeding farm was managed according to the Korean poultry breeding management guidelines. Cages and the breeding farm were cleaned and disinfected before starting the test. The temperature of […] and the humidity of 40 to 50% of the breeding farm were maintained, and it was continuously monitored.
For the feed, Korea Feed Al-choi product was used, and each material (diclazuril (Yuhan Corporation YUHAN DICLA product), salinomycin (Cheil Bio Cheilsalino-60 product), violacein (CJ Cheiljedang)) was added to the feed, respectively, at a concentration described in Table 3 below to be self-mixed. Antibiotics and supplements were not used in general feed and mixed feed, and no anticoccidial agent other than each material was added. Broilers were fed ad libitum throughout the experiment period. After putting 15 1-day-age broilers in cages randomly placed for each of the control group or test group and breeding, general feed (Al-choi product) was fed for 7 days, and then the mixed feed prepared above was ingested by dividing by control group or test group. The non-infected negative control group used 1cage, and the infected negative control group and experimental group used 2cage to progress the experiment.
The feed formulation administered to the control group (negative control group or positive control group) and test group and whether coccidiosis was induced by Eimeria tenella were described in Table 3 below.
14-day-old broilers were orally inoculated with 10,000 oocysts (90% sporulated Eimeria tenella oocysts) per individual to induce coccidiosis.
The anticoccidial efficacy by test group designed in Example 1-2 above was shown as an anticoccidial index (ACI), and the anticoccidial index was calculated by Equation 2 below. The ACI score is out of 200 points, and the higher the ACI score, the more excellent the anticoccidial ability, and when it is 120 points or more to less than 140 points, it is determined that it is effective as an anticoccidial material, and when it is 140 points or more to less than 160 points, it is determined that it is excellent as an anticoccidial material, and when it is 160 points or more, it is determined that the anticoccidial effect is very excellent (Luis Miguel De Pablos et al., Anticoccidial activity of maslinic acid against infection with Eimeria tenella in chickens, Parasitol Res, 2010). Anticoccidial index (ACI)=(survival rate after challenge inoculation(%))+(daily weight gain compared to negative control group (RWG,%))−(lesion score×10)−(fecal oocyst excretion amount index) (Equation 2) • 1) Survival rate: the number of dead individuals was recorded daily, and post mortem autopsy was performed to determine a cause of mortality, and the number of individuals who died due to causes other than coccidiosis was excluded. The survival rate (%) up to the 8th day after challenge inoculation was used for anticoccidial index calculation. The measured survival rate was described in Table 4 below. • 2) Daily weight gain: body weight was measured for each cage before challenge inoculation with a protozoan into an individual and at the 7th day after challenge inoculation, and the difference was divided by the number of days to calculate the daily weight gain (ADG, g/d). ‘Daily weight gain compared to the negative control group (RWG, %)’ which was calculated by dividing the daily weight gain (ADG, average daily gain; g/d) of each experimental group by the weight gain (ADG, g/d) of the non-infected negative control group and multiplying by 100 was used for anticoccidial index calculation. […]

`CC[C@@H](C(=O)[C@@H](C)[C@@H](O)[C@H](C)[C@@H]1O[C@@H]([C@@H](CC)C(=O)O)CC[C@@H]1C)[C@H]1O[C@]2(C=C[C@@H](O)[C@]3(CC[C@@](C)([C@H]4CC[C@](O)(CC)[C@H](C)O4)O3)O2)[C@H](C)C[C@@H]1C` [Salinomycin, salinomycin, reference compound] gave an inhibition at 5 ppm ([1]; MDBK, 24 h) of 32.2%, an inhibition at 10 ppm ([1]; MDBK, 24 h) of 34.8% and an inhibition at 5 ppm ([2]; MDBK, 24 h) of 50.1%. For the same compound, the inhibition at 10 ppm ([2]; MDBK, 24 h) was 56.4%, the “ADG(g/d) after challenge inoculation” value ([3]; feed 60 ppm) was 56 g/day and the Oocyst index ([3]; feed 60 ppm) was 10. For the same compound, the Lesion score ([3]; feed 60 ppm) was 2.6, the Oocyst excretion amount/g ([3]; feed 60 ppm) was 1.3e+08 g⁻¹ and the Lesion index ([3]; feed 60 ppm) was 26. The ACI ([3]; feed 60 ppm) was 139, the “Survival rate after challenge inoculation (%)” value (shortened to “Survival rate … (%)”) ([3]; feed 60 ppm) was 87% and the “RWG(%)” value ([3]; feed 60 ppm) was 88%.

Compound `O=C1N=c2ccccc2=C1c1cc(-c2c[nH]c3ccc(O)cc23)[nH]c1O` [Violacein, 3-(2-(5-Hydroxyindol-3-yl)-5-oxo-2-pyrrolin-4-ylidene)-2-indolinone] has an inhibition at 0.5 ppm ([1]; MDBK cells, 0.5 ppm, treated after invasion, 24 hours) of 53.7%, an inhibition at 1 ppm ([1]; MDBK cells, 1 ppm, treated after invasion, 24 hours) of 45.8% and an inhibition at 0.5 ppm ([2]; MDBK cells, 0.5 ppm, 41° C. 24 hours) of 59.5%. For the same compound, the inhibition at 1 ppm ([2]; MDBK cells, 1 ppm, 41° C. 24 hours) was 78.6%, the “ADG(g/d) after challenge inoculation” value ([3]; feed 10 ppm) was 60 g/day and the Oocyst index ([3]; feed 10 ppm) was 10. For the same compound, the Lesion score ([3]; feed 10 ppm) was 2.1, the Oocyst excretion amount/g ([3]; feed 10 ppm) was 1.3e+08 g⁻¹ and the Lesion index ([3]; feed 10 ppm) was 21. The ACI ([3]; feed 10 ppm) was 162, the “Survival rate … (%)” value ([3]; feed 10 ppm) was 100% and the “RWG(%)” value ([3]; feed 10 ppm) was 94%. The “ADG(g/d) after challenge inoculation” value ([3]; feed 40 ppm) was 58 g/day, the Oocyst index ([3]; feed 40 ppm) was 10 and the Lesion score ([3]; feed 40 ppm) was 2.7. The Oocyst excretion amount/g ([3]; feed 40 ppm) was 9e+07 g⁻¹, the Lesion index ([3]; feed 40 ppm) was 27 and the ACI ([3]; feed 40 ppm) was 145. For the same compound, the “Survival rate … (%)” value ([3]; feed 40 ppm) was 90% and the “RWG(%)” value ([3]; feed 40 ppm) was 91%.
